What was measured:
[1] = system: MSU-induced air sacs; test: Air sacculitis (MSU-induced air sacs), leukocyte counts in lavage fluid; settings: for Leukocyte count: Basophil / Leukocyte count: Eosinocyte / Leukocyte count: Lymphocyte / Leukocyte count: Monocyte / Leukocyte count: Neutrophil / Total cell count: 5 mg/kg (dexamethasone intraperitoneal, colchicine intragastric), lavage fluid 4 h after MSU, mean ± SEM, n = 8;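 on all read-outs here: male Wistar rats with dorsal air sacs, dosed 1 h before injecting MSU crystal suspension, compared with saline-injected blank and vehicle-treated model groups, cytological analysis of lavage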
Experimental: (§1) The sterile MSU crystals were added to 5 mL of sterilized saline before injected into air sacs.
(§2) Male Wistar rats were raised for one week and then randomly divided into 6 groups. Animals were anesthetized and then injected with 24 mL of sterile air in their backs. The animals received the second injection of air 4 days later. On day 7, the rats in the blank group and model group were intragastrically administered with the solvent at a dose of 10 mL/kg; the rats in the dexamethasone group were administered by intraperitoneal injection with dexamethasone at a dose of 5 mg/kg; the rats in the colchicine group were intragastrically administered with colchicine at a dose of 5 mg/kg. […] One hour after administration, the rats in the blank group were injected with 5 mL of saline into the air sacs at the back, and the rats from other groups were injected with 5 mL of MSU crystal suspension (1 mg/mL) into the air sacs at the back. Four hours later, the lavage fluid in the air sacs was taken, and a portion of the lavage fluid was used for cytological analysis. The remaining was centrifuged at 8000 rpm for 15 min, and the supernatant was stored at −80° C. for the detection of cytokines IL-1β, IL-6, KC and TNFα. The test results were shown as mean±SEM and statistically analyzed by t-test.

[2] = system: IL-1β, IL-6, KC and TNFα; test: Air sacculitis (MSU-induced air sacs), cytokines in lavage fluid; settings: 5 mg/kg (dexamethasone intraperitoneal, colchicine intragastric), lavage fluid supernatant, mean, n = 8
Experimental: as §1, §2

COc1cc2c(c(OC)c1OC)-c1ccc(OC)c(=O)cc1[C@@H](NC(C)=O)CC2 [Colchicine, colchicine, reference compound]
Leukocyte count: Basophil [1]: 0 ± 0 *10^4/air sacs
Leukocyte count: Eosinocyte [1]: 7.8 ± 2.0 *10^4/air sacs
Leukocyte count: Lymphocyte [1]: 12.1 ± 2.5 *10^4/air sacs
Leukocyte count: Monocyte [1]: 171.7 ± 20.1 *10^4/air sacs
Leukocyte count: Neutrophil [1]: 21.3 ± 6.6^$ *10^4/air sacs
Total cell count [1]: 212.9 ± 28.8^$ *10^4/air sacs
effect on increase of the total cell count and neutrophil count in the lavage fluid caused by MSU (in words) ([1]; compound A at the oral doses of 30 mg/kg and 100 mg/kg): significantly inhibit
IL-1β [2]: 112.6 pg/mL
KC [2]: 9892.7 pg/mL
TNF-α [2]: 32.2 pg/mL

C[C@@H]1C[C@H]2[C@@H]3CCC4=CC(=O)C=C[C@]4(C)[C@@]3(F)[C@@H](O)C[C@]2(C)[C@@]1(O)C(=O)CO [Dexamethasone, dexamethasone, reference compound]
Leukocyte count: Basophil [1]: 0 ± 0 *10^4/air sacs
Leukocyte count: Eosinocyte [1]: 4.8 ± 1.6 *10^4/air sacs
Leukocyte count: Lymphocyte [1]: 7.5 ± 1.1 *10^4/air sacs
Leukocyte count: Monocyte [1]: 171.0 ± 19.2 *10^4/air sacs
Leukocyte count: Neutrophil [1]: 13.8 ± 2.4^$ *10^4/air sacs
Total cell count [1]: 197.2 ± 22.8^$$ *10^4/air sacs
IL-1β [2]: 27.8 pg/mL
KC [2]: 1653.5 pg/mL
TNF-α [2]: 6.6 pg/mL
